Here are results for 2 compounds from US8518923B2, “Treatment or prevention of hypertensive disorders of pregnancy or fetal growth retardation” (Pantarhei Bioscience B.V., priority 2007, dated 2013).

One assay has as its system subcutaneous arteries. Nature of the assay: Ex-vivo relaxation response in subcutaneous arteries on pressure myograph. Conditions: arteries from normal pregnant women, concentration response (FIG. 2). The arrangement: species or system human. The text has this: (§1) To evaluate acute dilatory responses to estetrol in human vasculature ex-vivo, the following study has been conducted. Myometrial arteries and subcutaneous arteries (diameter: 220 μm; length: 2-3 mm) were dissected from normal pregnant women undergoing planned caesarian section. Myometrial arteries are present in the uterus and are branches from the arteria uterina. Cigarette smokers and women with hypertension, diabetes mellitus, clinical manifestations of arteriosclerosis (CHD, peripheral artery disease, cerebrovascular disease), venous thromboembolic disease, liver disorders, unexplained vaginal bleeding, and personal or family history of breast cancer were excluded. None had received HRT, other steroid hormones, or any medication known to affect lipoprotein metabolism or blood pressure. The dissected arteries were mounted on a pressure myograph (LSI, USA). The organ bath was perfused (7 ml/min) with PSS (mM: NaCl 119, KCl 4.7, CaCl2 2.5, MgSO4 1.17, NaHCO3 25, KH2PO4 1.18, EDTA 0.026 and glucose 5.5; pH 7.4, 37° C., gassed with 5% CO2 in O2). […] FIG. 2 depicts the response curve of estetrol and PPT in the subcutaneous arteries. Again, the number of subjects is mentioned in parenthesis.

For a further assay, the system named is Myometrial arteries. Nature of the assay: Ex-vivo relaxation response in myometrial arteries on pressure myograph. Also on record: species or system human. Conditions: for relaxation in myometrial arteries: arteries from normal pregnant women, pressure myograph, concentration response (FIG. 1).
Source text: as §1, with “FIG. 1” for “FIG. 2”, “the myometrial” for “the subcutaneous”, “arteries. The” for “arteries. Again, the”

On to `CCCc1c(-c2ccc(O)cc2)nn(-c2ccc(O)cc2)c1-c1ccc(O)cc1` [PPT, [1H]-pyrazole-1,3,5-tri-trisphenol, reference compound], for which the “relaxation in subcutaneous arteries” value in the assay with subcutaneous arteries is listed as “capable of inducing relaxation”. In addition, the “relaxation in myometrial arteries” value in the assay on Myometrial arteries was “capable of inducing relaxation”.
For `C[C@]12CC[C@@H]3c4ccc(O)cc4CC[C@H]3[C@@H]1[C@@H](O)[C@@H](O)[C@@H]2O` [estetrol, 1,3,5 (10)-estratrien-3,15α,16α,17β-tetrol], the “relaxation in subcutaneous arteries” value in the assay on subcutaneous arteries was “capable of inducing relaxation”. The “relaxation in myometrial arteries” value in the assay on Myometrial arteries is given as “capable of inducing relaxation”. The “selective effect: relaxation in myometrial arteries compared to subcutaneous arteries” value with Myometrial arteries (comparison of FIGS. 1 and 2) is “more pronounced in the myometrial arteries compared to the subcutaneous arteries”.
